The source of these data is patent US9359418B2, “Inhibitors of the T cell-specific alternative p38 activation pathway and methods of use” (The United States of America, as represented by the …, priority 2012, dated 2016).

Experiment [1] has as its system p38 (alternative activation pathway). The experiment can be described thus: In vitro kinase assay: ATF2 phosphorylation by Zap70-activated p38. Type of experiment: biochemical. The following applies: (11R)-71-85 0.2-4.0 μg, (11R)-Ctrl 4.0 μg; 30 minutes at 30° C.; p38 activated with Zap70. The method, then: Purified p38 proteins were activated by incubating with active Zap70 in kinase buffer for 1 hour. (11R)-71-85 or (11R)-Ctrl was then added and incubated for 30 minutes at 30° C. One μg ATF2 and 10 μCi [^32P]ATP were then added and incubated for 45 minutes at 30° C. Phosphorylated products were resolved by SDS-PAGE, transferred to nitrocellulose membranes, and visualized by phosphorimager.
To test whether (11R)-71-85 can inhibit the alternative p38 activation pathway in vitro, an assay was performed to detect phosphorylation of activating transcription factor 2 (ATF2), a target of activated p38, in the presence and absence of (11R)-71-85. Purified p38 proteins were activated by incubation with active Zap70 in kinase buffer for 1 hour. (11R)-71-85 (0.2, 0.5, 1.0, 2.0 or 4.0 μg) or (11R)-Ctrl (4.0 μg) was then added and incubated for 30 minutes at 30° C. One μg ATF2 and 10 μCi [^32P]ATP were added and incubated for 45 minutes at 30° C. Phosphorylated products were resolved by SDS-PAGE, transferred to nitrocellulose membranes, and visualized by phosphorimager. […] In addition, the decrease in ATF2 phosphorylation was dependent on the dose of (11R)-71-85.

For the next experiment, the system named is T cells. The experiment can be described thus: Inflammatory cytokine production by T cells (flow cytometry). Type of experiment: cell-based. The text has this: FIGS. 4A-4B are a series flow cytometry plots showing inflammatory cytokine secretion by CD4^+ (FIG. 4A) and CD8^+ (FIG. 4B) T cells. T cells were purified from spleen and stimulated with anti-CD3 plus anti-CD28 for 3 days. Cells were then left unstimulated overnight and treated with the indicated concentrations of (11R)-71-85, control peptide (11R)-Ctrl, or DMSO (no peptide). After treatment, cells were restimulated with either anti-CD3 plus anti-CD28, or PMA plus ionomycin supplemented with monensin. Cytokine expression was measured by flow-cytometry.
To evaluate cytokine production, T cells were purified from spleen and stimulated with anti-CD3 plus anti-CD28 for 3 days. Cells were then left unstimulated overnight and treated with 1 or 2 μM (11R)-71-85 or control peptide (11R)-Ctrl, or with DMSO only. After treatment, cells were restimulated with either anti-CD3 plus anti-CD28 (to stimulate the TCR and the alternative p38 pathway), or PMA plus ionomycin supplemented with monensin (to stimulate the classical p38 pathway). Cytokine expression was measured by flow-cytometry.
(In flow cytometry, cells or beads pass a laser one at a time.)

The test system of a further experiment is Nfatc1 and Irf4 mRNA. The experiment can be described thus: Nfatc1 and Irf4 mRNA in spleen T cells after i.v. injection. Type of experiment: in vivo, mice. The note with it: 50 μg i.v.; total T cells and CD4+ T cells from spleen. The procedure:
FIG. 8 is a series of graphs showing reduction in expression of Nfatc1 and Irf4 in CD4^+ T cells following injection of (11R)-71-85. WT C57BL/6 mice were injected i.v. with 50 μg of DMSO, (11R)-Scrambled, or (11R)-71-85 and either total T cells or CD4±T cells were purified from spleen at different times. Purified cells were stimulated in vitro with anti-CD3/CD28 for 24 hours and the mRNA levels of the indicated transcription factors were determined by quantitative real-time PCR.
Expression of NFATc1 and IRF4, two transcription factors activated upon TCR stimulation, was also evaluated after intravenous (i.v.) injection of (11R)-71-85. WT C57BL/6 mice were injected i.v. with 50 μg of DMSO, (11R)-Scrambled, or (11R)-71-85, and either total T cells or CD4±T cells were purified from spleen at different times. Purified cells were stimulated in vitro with anti-CD3/CD28 for 24 hours and the mRNA levels of Nfatc1 and Irf4 were determined by quantitative real-time PCR.

Consider “(11R)-71-85: fusion protein: 11 arginine residues added to the N-terminus of the Gadd45α 71-85 peptide (LQIHFTLIQAFCCEN; N-terminal 11 arginine; UniProt P24522 71-85, looked up, fragment)”, for which, in experiment [1], the “phosphorylation of ATF2” value was “decrease in phosphorylation of ATF2”. The “inhibition of production of TNF-α and IFN-γ, 2 μM compared with 1 μM” value in the experiment on T cells (2 μM versus 1 μM) is reported as “to a greater extent”. In addition, the “cytokine production in response to PMA plus ionomycin” value in the experiment with T cells (1 or 2 μM, restimulated with PMA plus ionomycin) is reported as “no significant effect”. In addition, the “production of TNF-α in response to TCR stimulation” value in the experiment on T cells (1 or 2 μM, restimulated with anti-CD3 plus anti-CD28) is reported as “inhibits”. In addition, in the experiment on Nfatc1 and Irf4 mRNA, the “Irf4 mRNA expression following TCR stimulation” value is given as “inhibits” and the “Nfatc1 mRNA expression following TCR stimulation” value was “inhibits”.
